The values below come from ChEMBL document CHEMBL5537169, “Structure-Activity Relationships and Discovery of (S)-6-Isopropyl-2-methoxy-3-(3-methoxypropoxy)-10-oxo-5,10-dihydro-6H-pyrido[1,2-h][1,7]naphthyridine-9-carboxylic Acid (AB-452), a Novel Orally Available HBV RNA Destabilizer” (J Med Chem, 2024).

Active and inactive are the calls of the source. The calls are words filed in the database; no cut-off is given here.

In general, EC50 refers to the concentration that produces a half-maximal response. One may read the Tmax as the time from dosing to the highest level.

The nature of data set [1]: Cardiotoxicity in Langendorff-perfused New Zealand White rabbit heart assessed as increase in QT interval upto 10 uM incubated for 45 mins by ECG analysis. The following applies: 0.75 h. The data set is classed as toxicity, tissue-based, Oryctolagus cuniculus.
The subject of data set [2] is Hepatitis B virus. The data set is described as follows: Antiviral activity against AAV-Hepatitis B virus infected in C57BL/6 mouse assessed as serum HBsAg level at 30 mg/kg,po administrated once daily for 7 days by enzyme-linked immunoassay. The format is functional. Conditions: time 7 day.
Data set [3] relates to Hepatitis B virus. Briefly: Antiviral activity against AAV-Hepatitis B virus infected in C57BL/6 mouse assessed as liver HBsAg level at 3 to 30 mg/kg,po administrated once daily for 7 days by enzyme-linked immunoassay. The data set is classed as functional, organism-based. The following applies: dose 3-30 mg/kg, time 7.0 day.
In data set [4] the test system is Hepatitis B virus. Briefly: Antiviral activity against AAV-Hepatitis B virus infected in C57BL/6 mouse assessed as liver total HBV RNA level at 3 to 30 mg/kg,po administrated once daily for 7 days by branched DNA assay. The format is functional, organism-based. Conditions: dose 3-30 mg/kg, time 7.0 day.
For data set [5], the system named is Hepatitis B virus. Briefly: Antiviral activity against AAV-Hepatitis B virus infected in human Primary hepatocyte assessed as reduction in HBeAg level measured after 16 days by ELISA. The format is functional, organism-based. The following applies: 384 h. (ELISA stands for enzyme-linked immunosorbent assay.)
Data set [6] can be described thus: Tmax in CD-1 mouse at 10 mg/kg,po measured at 0.083 to 24 hrs post administration by LC-MS/MS analysis. The data set is classed as ADME, organism-based. Conditions: in vivo, time 0.083-24 hrs.
Data set [7] in a line: Drug accumulation in CD-1 mouse liver at 10 mg/kg,po measured at 0.083 to 24 hrs post administration by LC-MS/MS analysis. The format is ADME, organism-based. The following applies: in vivo, time 0.083-24 hrs.
Data set [8] is described as follows: Apparent volume of distribution at steady state in Sprague-Dawley rat at 10 mg/kg,po measured at 0.083 to 24 hrs post administration by LC-MS/MS analysis. The format is ADME, organism-based. The following applies: in vivo, time 0.083-24 hrs.

On to `COCCCOc1cc2c(nc1OC)-c1cc(=O)c(C(=O)O)cn1[C@H](C(C)C)C2`, for which the results for the Activity entry (in data set [1]; in the data set with Hepatitis B virus [2]) were “Non-Toxic” and 1.78 log10CFU, respectively. For the same compound, the result in the data set with Hepatitis B virus [3] and in the data set on Hepatitis B virus [4] was Active. Also, in the data set on Hepatitis B virus [5], the EC50 is 3 nM.
For `COCCCOc1cc2c(cc1Cl)-c1cc(=O)c(C(=O)O)cn1[C@H](C(C)C)CO2`, the Tmax in data set [6] came to 4.1 h. The compound further displayed a Ct in data set [7] of 425 ng/g. The “Vdss(app)” value in data set [8] was found to be 0.4 L/kg.
